Measured values published in US11220548B2, “Treatment of C1013G/CXCR4-associated Waldenstrom's macroglobulinemia with an anti-CXCR4 antibody” (BRISTOL-MYERS SQUIBB COMPANY, priority 2013, dated 2022).

Tests used:
WM cell lines = assay: Adhesion of WM cells to primary WM BM-MSCs; assay type: cell-based, human; details: 4 h treatment, adhesion after 2 h
Description: FIGS. 15A-15C: FIGS. 15A-15C show the effect of BMS-936564 on adhesion and proliferation of WM cells in vitro. WM cell lines were treated with BMS-936564 for 4 h and subsequently tested for adhesion to primary WM BM-MSCs. […] WM cell lines, MWCL.1 (FIG. 15B) and BCWN.1 (FIG. 15C) were cultured with control media and with BMS-936564 for 48 h in the presence or absence of primary WM BMMSCs. Cell proliferation was assessed using a [^3H]-thymidine uptake assay. Bars indicate standard deviations. P indicates P value. All data represent mean (±sd) of triplicate experiments. The CXCR4 antagonist, […] (Sigma-Aldrich, St. Louis, Mo.), was used as control.

BCWM.1-mCherry+ cells = assay: In vivo homing and tumor progression of wild-type WM cells; parameters: species or system SCID/Bg mice
Description: Serum was collected at the end of the study. […] Cell toxicity was performed by MTT. […] Bars indicate standard deviation.
Human serum IgM levels were determined by using a human IgM ELISA assay (ZeptoMetrix, Buffalo, N.Y.), according to the manufacturer's protocol.
SCID/Bg mice (n=5/group) were injected with BCWM.1 infected with either precision LentiORF/CXCR4/GFP (CXCR4^+)- or empty vector probe/RFP (control)-infected BCWM.1 cells. After three weeks, mice were euthanized and organs harvested. Hematoxylin-eosin staining, immunohistochemistry for human-CD20 and -CXCR4 were performed on explanted organs. Independent experiments were conducted to evaluate differences in survival (SCID/Bg mice, n=7/group). Similar studies were conducted using […]/CXCR4-mutated cells and control vector-infected cells (control cells). In vivo homing studies were performed using BCWM.1-mCherry^+ cells: cells were injected intravenously into […] mice and treated with either BMS-936564 or control antibody (10 mg/kg, intraperitoneally; 3-4 times per week for 3 weeks). The ability of BMS-936564 to modulate WM homing to BM, spleen and lymph nodes was evaluated ex vivo at the third week on explanted tissues, by using a fluorescence microscope (Nikon Eclipse 80i, Melville, N.Y.) (Roccaro et al., 2013).
The anti-WM activity of BMS-936564 was also tested in vivo using wild-type WM cells. BCWM.1-mCherry^+ cells were injected intravenously into SCID/Bg mice and treated mice with either BMS-936564 or control antibody.
As CXCR4 inhibition is thought to induce stem cell and tumor cell mobilization, it was hypothesized that BMS-936564 may also induce mobilization of WM cells leading to increased chemosensitivity to anti-WM agents. Accordingly, the effect of BMS-936564 in modulating tumor progression and WM cell dissemination to distant BM niches in vivo was evaluated as monotherapy or in combination with bortezomib.

[1] = tested on: C1013G/CXCR4-infected BCWM.1 cells; assay: Adhesion of C1013G/CXCR4-infected cells to primary WM BM-MSCs; assay type: cell-based, human; details: in the context of the BM microenvironment
Description: (§1) FIGS. 21A-21D: FIGS. 21A-21D show BMS-936564 targets C1013G/CXCR4-mutated cells in WM cells in the context of BM. C1013G/CXCR4-infected BCWM.1 cells were tested for their migratory properties using a transwell migration assay. Cells were exposed to increasing concentrations of BMS-936564 and migration was determined after 5 h. The transwell migration assay was performed in presence of either primary WM BM-MSCs (FIG. 21A) or SDF-1α (FIG. 21B). In both cases, BMS-936564-dependent inhibition of WM cell migration was observed. C1013G/CXCR4-infected BCWM.1 cells were treated with BMS-936564/for 4 h and subsequently tested for adhesion to primary WM BM-MSCs. […] C1013G/CXCR4-infected BCWM.1 cells were cultured with control media and with BMS-936564 for 48 h in the presence or absence of primary WM BM-MSCs. Cell proliferation was assessed using [^3H]-thymidine uptake assay (FIG. 21D). Bars indicate standard deviations. P indicates P value. All data represent mean (±sd) of triplicate experiments. […].

[2] = tested on: C1013G/CXCR4-infected BCWM.1 cells; assay: [3H]-thymidine uptake proliferation assay of C1013G/CXCR4-infected cells; assay type: cell-based, human; details: in the context of the BM microenvironment, 48 h
Description: as §1

[3] = tested on: WM cell lines (BCWM.1; MWCL.1); assay: Transwell migration assay of WM cell lines; assay type: cell-based, human; details: increasing concentrations, 5 h
Description: FIGS. 14A and 14B: FIGS. 14A and 14B show the effect of BMS-936564 on migration of WM cells in vitro. WM cell lines (BCWM.1; MWCL.1) were tested for their migratory properties using a transwell migration assay. Cells were exposed to increasing concentrations of BMS-936564 and migration was determined after 5 h. The transwell migration assay was performed in presence of either primary WM BM-MSCs (FIG. 14A) or in presence of SDF-1α (FIG. 14B). In both cases, BMS-936564-dependent inhibition of WM cell migration was observed.

[4] = tested on: C1013G/CXCR4-mutated cells; assay: Western blot of survival and apoptosis-related proteins in C1013G/CXCR4-WM cells; assay type: cell-based, human
Description: FIGS. 22A-22C: FIGS. 22A-22C show the effect of BMS-936564 on survival and apoptosis-related signal proteins in C1013G/CXCR4-WM cells. C1013G/CXCR4-mutated cells were cultured in presence or absence of BMS-936564 for 6 h, showing inhibition of phospho(p)-ERK, ERK, p-Akt, Akt, p-Src (FIG. 22A). Similarly, cells were exposed to the compound for 14 h, and induction of apoptosis-related pathways was observed (p-GSK3β, and p-β-catenin (FIG. 22B), and PARP and Caspase-9 (FIG. 22C)).
Protein lysates were obtained from WM cells by homogenization under nondenaturing conditions in lysis buffer (Cell Signaling Technology, Beverly, Mass.) supplemented with 5 mM NaF, 2 mM Na3VO4, 1 mM PMSF ([…]), 5 μg/mL leupeptine, and 5 μg/mL aprotinin. Whole-cell lysates were subjected to sodium dodecyl sulfate-polyacrylamide gel electrophoresis (SDS-PAGE) and transferred to polyvinylidene difluoride (PVDF) membrane (Bio-Rad Laboratories, Hercules, Calif.). The antibodies used for immunoblotting included: anti-phospho(p)-ERK, anti-ERK, anti-p-Akt, anti-Akt, anti-p-Src, anti-Src, anti-caspase-9, anti-PARP, anti-p-β-catenin, anti-β-catenin, anti-p-GSK3, anti-GAPDH and anti-α-tubulin antibodies (Cell Signaling, Danvers, Mass.).

[5] = tested on: C1013G/CXCR4-infected BCWM.1 cells; assay: Transwell migration assay of C1013G/CXCR4-infected cells; assay type: cell-based, human; details: in the context of the BM microenvironment
Description: as §1

“BMS-936564: fully human anti-CXCR4 monoclonal antibody; VH SEQ ID NO: 25, VL SEQ ID NO: 29” was tested, and the “WM cell adhesion to WM BM-MSCs” value (WM cell lines) was “inhibition”, the “tumor cells within the BM” value (BCWM.1-mCherry+ cells; BMS-936564 10 mg/kg i.p., bortezomib 0.5 mg/kg i.p. x2/week, P<0.05) was “significant reduction” and the “serum IgM levels” value (BCWM.1-mCherry+ cells; human IgM ELISA at end of study, P<0.05) was “significantly reduced”. The “WM cell dissemination (BM, spleen and lymph nodes, immunofluorescence imaging ex vivo)” value (BCWM.1-mCherry+ cells; wild-type WM cells, 10 mg/kg intraperitoneally, vs control antibody) was “inhibit WM cell dissemination”, the “targeting adhesion of CXCR4-mutated cells” value [1] was “equally active” and the “targeting proliferative properties of CXCR4-mutated cells” value [2] was “equally active”. The “migration of WM cell lines towards SDF-1” value [3] was “inhibit migration”, the “migration of WM cell lines towards primary WM BM-MSCs” value [3] was “inhibit migration” and the “p-ERK, p-Akt, and p-Src in WM cells harboring the C1013G/CXCR4 mutation” value ([4]; 6 h) was “dose-dependent inhibition”. The “GSK3-β/β-catenin signaling in CXCR4-mutated WM cells” value ([4]; 14 h) was “up-regulation of p-GSK3-β/p-β-catenin and β-catenin degradation”, the “caspase-9- and PARP-cleavage in CXCR4-mutated WM cells” value ([4]; 14 h) was “increased” and the “targeting migration of CXCR4-mutated cells” value [5] was “equally active”.
